The target of assay [1] is T1, Aurora A kinase (Homo sapiens, UniProt O14965).
T1 construct: purchased Upstate Biotech
T1 sequence (O14965 1-403): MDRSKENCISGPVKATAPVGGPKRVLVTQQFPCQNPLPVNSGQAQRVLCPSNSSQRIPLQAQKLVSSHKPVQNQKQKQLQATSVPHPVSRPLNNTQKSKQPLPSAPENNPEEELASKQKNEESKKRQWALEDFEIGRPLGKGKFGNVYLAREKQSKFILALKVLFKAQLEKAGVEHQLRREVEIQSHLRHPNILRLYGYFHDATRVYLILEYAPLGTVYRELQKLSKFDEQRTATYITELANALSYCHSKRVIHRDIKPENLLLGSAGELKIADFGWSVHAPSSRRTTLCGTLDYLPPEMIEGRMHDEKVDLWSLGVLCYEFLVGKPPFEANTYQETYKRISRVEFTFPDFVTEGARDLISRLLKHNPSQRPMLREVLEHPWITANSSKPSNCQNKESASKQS
Put plainly: Aurora A kinase assay (IMAP fluorescence polarization). Format: biochemical. The conditions noted are these: 10 μM ATP; rounded to 1 significant figure; read-out: Aur-A IC50. An excerpt:
(§1) The cell lines HL60 (human promyelocytic leukemia) and HCT116 (human colon carcinoma) were obtained from the American Type Culture Collection, Manassas, Va., U.S.A., and HUVEC-2 (human umbilical vein endothelial cells) from BD Biosciences, Bedford, Mass., U.S.A. Aurora A kinase was obtained from Upstate Biotech, Billerica, Mass., U.S.A.; Aurora B kinase from BPS Bioscience, San Diego, Calif., U.S.A.; and VEGFR2 kinase from Cell Signaling Technology, Danvers, Mass., U.S.A. The IMAP FP Screening Express kit was obtained from Molecular Devices, Sunnyvale, Calif., U.S.A.; the CellTiter-Glo assay kit from Promega Corporation, Madison, Wis., U.S.A.; and the Cellular DNA Cytometric Analysis Reagent Kit and BrdU labeling and detection kit from Roche Diagnostics Corporation, Indianapolis, Ind., U.S.A. All products were used in accordance with manufacturer's directions. Kinase inhibition assays and the histone phosphorylation (p-H3) assay were conducted in duplicate, and the cytotoxicity and HUVEC proliferation assays were conducted in triplicate, in each case with solvent control.
Aurora A kinase assay: the test compounds were diluted in dimethylsulfoxide (DMSO, eight concentrations with serial 3-fold dilutions) and incubated (final DMSO concentration 2.5%) with Aurora A kinase at room temperature for 5 min in kinase reaction buffer with 1 mM dithiothreitol (IMAP FP Screening Express). The kinase reaction was initiated by adding 100 nM fluorescein labeled PKAtide and 10 μM adenosine triphosphate (ATP), and allowed to continue for 45 min at room temperature, after which it was stopped by adding binding reagent (1:400 dilution in binding buffer A). After 30 min of room temperature incubation with shaking, the fluorescence polarization was measured on a LJL plate reader. Aurora B kinase assay: performed as for the Aurora A kinase assay, but using Aurora B kinase instead of Aurora A kinase.

Assay [2] has as its target T2, Aurora B kinase (Homo sapiens, UniProt Q96GD4).
T2 construct: purchased BPS Bioscience
Put plainly: Aurora B kinase assay (IMAP fluorescence polarization). As to conditions: 10 μM ATP; rounded to 1 significant figure; read-out: Aur-B IC50. Type of assay: biochemical.
Text: as §1
The kinase reaction was initiated by adding 100 nM fluorescein labeled PKAtide and 10 μM adenosine triphosphate (ATP), and allowed to continue for 45 min at room temperature, after which it was stopped by adding binding reagent (1:400 dilution in binding buffer A). After 30 min of room temperature incubation with shaking, the fluorescence polarization was measured on a LJL plate reader. Aurora B kinase assay: performed as for the Aurora A kinase assay, but using Aurora B kinase instead of Aurora A kinase.
For orientation: In fluorescence polarisation assays a small probe gives low polarisation when free and higher when bound to something large.

In assay [3] the target is T3, VEGFR2 kinase (Homo sapiens, UniProt P35968).
T3 construct: purchased Cell Signaling Technology
As to the kind of experiment: VEGFR2 kinase assay. Type of assay: biochemical. The conditions noted are these: 6 μM ATP, 1 mM MnCl2; rounded to 1 significant figure.
Text: as §1
This assay was performed as for the Aurora A kinase assay, using VEGFR2 kinase, CSKtide as the substrate with 6 μM ATP and 1 mM MnCl2, a kinase reaction time of 1 hr, and dilution of the binding reagent 1:1200 in binding buffer A/binding buffer B (1:1).

Assay [4] concerns p-H3 in HCT116 cells. As to the kind of experiment: Histone phosphorylation (p-H3) assay. Type of assay: cell-based. The conditions noted are these: Homo sapiens, HCT-116; HCT116 cells, 4 hr incubation; read-out: p-H3 IC50.
Text: as §1
Log phase HCT116 cells were seeded at 2.5×10^4 cells/well in a 96-well plate and allowed to attach overnight. The test compounds were diluted in DMSO (8 concentrations with serial 3-fold dilutions) and added to the cells (0.5% DMSO final concentration), and the cells incubated for 4 hr. The cells were then washed three times with cold phosphate-buffered saline (PBS), and lysis buffer was added. After 30 min shaking at 4° C. and centrifugation, the supernatants were transferred to a nitrocellulose membrane by a “dot-blot” apparatus. After washing the wells, the membrane was processed for Western blot. Detection of p-H3 and β-actin was performed on the same membrane with primary rabbit anti-p-H3 and mouse anti-β-actin antibodies followed by secondary goat anti-rabbit IRDye800 and goat anti-mouse AlexaFluor 680 antibodies. The membranes were scanned on an Odyssey scanner.

The test system of assay [5] is HCT116 (human colon carcinoma) cells. As to the kind of experiment: HCT116 cytotoxicity assay (CellTiter-Glo). Type of assay: cell-based. The conditions noted are these: HCT-116, 72 h, cytotoxicity, three days culture, read-out: HCT116 IC50.
Text: as §1
Log-phase cells were trypsinized, collected by centrifugation, and resuspended in a small volume of fresh medium, and the density of viable cells was determined following Trypan Blue staining. Cells were diluted in fresh media (1×10^4 cells/mL for HL60 and 4×10^4 cells/mL for HCT116 cells), the test compounds (concentrations between 0.1 μM and 200 μM, dissolved in DMSO, 50 μL) added immediately after dilution to achieve a final DMSO concentration of 0.5%, then the suspensions added at 150 μL/well to 96-well plates, and incubated overnight to allow attachment in the case of adherent cells. The cells were cultured for three days (about three doubling times). The cells were then collected by centrifugation, and 100 μL of the culture supernatant was replaced by the CellTiter-Glo reagent. After incubation for 15 minutes at room temperature, the plate was read with a luminometer.
For orientation: Cellular ATP, detected with luciferase, serves as a proxy for viable cell number.

Assay [6] has as its system HUVEC-2 (human umbilical vein endothelial cells). As to the kind of experiment: HUVEC VEGF-dependent proliferation assay (BrdU). Format: cell-based. The conditions noted are these: VEGF (25 ng/mL)-dependent proliferation, read-out: HUVEC IC50.
Text: as §1
HUVEC-2 cells were seeded at 10^4 cells/well in a 96-well plate coated with 0.1% gelatin in complete medium. […] The compounds were serially diluted in DMSO, and added to the cells at 0.5% DMSO final concentration. After 2 hr, VEGF (25 ng/mL) was added; and after a further day, 5-bromo-2-deoxyuridine (BrdU, 10 μM) was added to label proliferating cells, and the cells incubated for another day. The plates were then processed using the Roche BrdU labeling and detection kit, and the VEGF-dependent antiproliferative activity of the compounds determined.

Molecules are shown by their SMILES.

T2 sequence (Q96GD4 whole entry): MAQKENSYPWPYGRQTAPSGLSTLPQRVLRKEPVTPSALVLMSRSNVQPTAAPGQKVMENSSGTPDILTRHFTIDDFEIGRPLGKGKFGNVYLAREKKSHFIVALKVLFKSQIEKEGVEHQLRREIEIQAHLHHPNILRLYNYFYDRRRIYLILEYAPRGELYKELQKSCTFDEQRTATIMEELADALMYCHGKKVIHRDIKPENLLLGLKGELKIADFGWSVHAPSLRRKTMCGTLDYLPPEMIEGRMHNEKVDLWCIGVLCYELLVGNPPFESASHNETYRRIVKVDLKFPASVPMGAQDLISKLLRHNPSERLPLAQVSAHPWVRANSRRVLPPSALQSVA
T3 sequence (P35968 20-1356): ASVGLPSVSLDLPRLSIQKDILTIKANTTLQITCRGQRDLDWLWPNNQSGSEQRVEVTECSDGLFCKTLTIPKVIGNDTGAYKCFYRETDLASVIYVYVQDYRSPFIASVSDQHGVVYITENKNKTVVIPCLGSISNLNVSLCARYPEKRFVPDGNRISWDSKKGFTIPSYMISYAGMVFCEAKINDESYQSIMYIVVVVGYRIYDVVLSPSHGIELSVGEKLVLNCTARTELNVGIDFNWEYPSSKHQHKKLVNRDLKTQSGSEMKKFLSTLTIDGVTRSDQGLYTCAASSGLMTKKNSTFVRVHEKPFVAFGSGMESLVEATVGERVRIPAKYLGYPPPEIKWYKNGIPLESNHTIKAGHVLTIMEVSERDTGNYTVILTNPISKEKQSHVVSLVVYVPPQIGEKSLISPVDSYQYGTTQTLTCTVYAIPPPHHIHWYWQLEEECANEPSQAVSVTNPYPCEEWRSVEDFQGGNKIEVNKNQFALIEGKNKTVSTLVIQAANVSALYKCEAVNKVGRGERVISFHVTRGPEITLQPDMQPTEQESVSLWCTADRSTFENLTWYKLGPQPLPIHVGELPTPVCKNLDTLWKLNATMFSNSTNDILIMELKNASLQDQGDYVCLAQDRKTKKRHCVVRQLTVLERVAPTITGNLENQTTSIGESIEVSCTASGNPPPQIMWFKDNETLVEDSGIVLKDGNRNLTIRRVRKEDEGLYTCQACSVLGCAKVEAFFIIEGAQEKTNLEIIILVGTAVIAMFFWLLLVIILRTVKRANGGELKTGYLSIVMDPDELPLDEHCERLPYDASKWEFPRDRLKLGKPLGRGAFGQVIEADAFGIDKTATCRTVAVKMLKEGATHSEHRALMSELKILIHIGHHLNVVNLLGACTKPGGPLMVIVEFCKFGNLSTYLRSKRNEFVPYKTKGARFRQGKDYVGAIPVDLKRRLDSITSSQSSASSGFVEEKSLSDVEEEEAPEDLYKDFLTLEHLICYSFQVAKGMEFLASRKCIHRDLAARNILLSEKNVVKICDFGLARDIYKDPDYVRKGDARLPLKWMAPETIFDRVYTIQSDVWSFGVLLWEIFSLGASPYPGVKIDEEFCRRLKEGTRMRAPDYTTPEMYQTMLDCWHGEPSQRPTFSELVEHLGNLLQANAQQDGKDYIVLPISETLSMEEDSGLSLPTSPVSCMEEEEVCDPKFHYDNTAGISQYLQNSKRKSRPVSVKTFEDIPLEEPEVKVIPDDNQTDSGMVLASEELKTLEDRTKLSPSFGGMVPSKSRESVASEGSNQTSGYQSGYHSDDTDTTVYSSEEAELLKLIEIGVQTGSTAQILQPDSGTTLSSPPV

Regarding `NCCNC(=O)c1ccc2c(c1)S/C(=C(/C(N)=O)c1nccc(C(F)(F)F)n1)N2` [Compound 63A], the IC50 in assay [1] amounted to 30 nM; in assay [2] it was 30 nM; in assay [3], 5 nM; in assay [4], 400 nM; in assay [5], 200 nM; in assay [6] it was 60 nM.
Turning to `NC(=O)/C(=C1\Nc2ccc(C(=O)N3CCC(N)CC3)cc2N1)c1nccc(C(F)(F)F)n1` [Compound 66A], the IC50 in assay [1] worked out at 20 nM; in assay [2], 10 nM; in assay [3], 2 nM; in assay [4] it was 200 nM; in assay [5], 200 nM; in assay [6], 50 nM.
Regarding `NC(=O)/C(=C1\Nc2ccc(C(=O)N3CCC(N)CC3)cc2S1)c1nccc(C(F)(F)F)n1` [Compound 67A], the IC50 in assay [1] turned out to be 10 nM; in assay [2] it was 40 nM; in assay [3], 4 nM; in assay [4] it was 40 nM; in assay [5], 200 nM; in assay [6] it was 20 nM.
For `NC(=O)/C(=C1\Nc2ccc(C(=O)N3CC[C@@H](N)C3)cc2N1)c1nccc(C(F)(F)F)n1` [Compound 68A], the IC50 in assay [1] came to 10 nM; in assay [2] it was 10 nM; in assay [3], 3 nM; in assay [4] it was 60 nM; in assay [5], 100 nM; in assay [6], 60 nM.
On to `NC(=O)/C(=C1\Nc2ccc(C(=O)N3CC[C@@H](N)C3)cc2S1)c1nccc(C(F)(F)F)n1` [Compound 69A], for which the IC50 was 20 nM in assay [1]; 30 nM in assay [2]; 2 nM in assay [3]; 100 nM in assay [4]; 90 nM in assay [5]; 20 nM in assay [6].
`NC(=O)/C(=C1\Nc2ccc(C(=O)NC3CCNCC3)cc2S1)c1nccc(C(F)(F)F)n1` [Compound 71A]: the IC50 in assay [1] is 20 nM; in assay [2], 40 nM; in assay [3] it was 4 nM; in assay [4], 200 nM; in assay [5] it was 200 nM; in assay [6], 90 nM.
`NC(=O)/C(=C1\Nc2ccc(C(=O)Nc3ccc(CN4CCOCC4)cc3)cc2N1)c1nccc(C(F)(F)F)n1` [Compound 72A]: the IC50 in assay [1] worked out at 20 nM; in assay [2] it was 20 nM; in assay [3] it was 20 nM; in assay [4], 300 nM; in assay [5], 200 nM; in assay [6], 80 nM.
On to `NC(=O)/C(=C1\Nc2ccc(NC(=O)[C@@H]3CCCN3)cc2N1)c1nccc(C(F)(F)F)n1` [Compound 80A], for which the IC50 came to 10 nM in assay [1]; 4 nM in assay [2]; 50 nM in assay [3]; 90 nM in assay [4]; 500 nM in assay [5]; 100 nM in assay [6].
`CN1CCCCC1C(=O)Nc1ccc2c(c1)N/C(=C(/C(N)=O)c1nccc(C(F)(F)F)n1)N2` (stereo not drawn) [Compound 82A]: the half-inhibitory concentration (IC50) in assay [1] stood at 8 nM; in assay [2] it was 7 nM; in assay [3], 10 nM; in assay [4] it was 400 nM; in assay [5], 80 nM; in assay [6], 30 nM.
`CN1CCN(CCC(=O)Nc2ccc3c(c2)N/C(=C(/C(N)=O)c2nccc(C(F)(F)F)n2)N3)CC1` [Compound 83A]: the IC50 is 6 nM in assay [1]; 10 nM in assay [2]; 60 nM in assay [3]; 200 nM in assay [4]; 200 nM in assay [5]; 200 nM in assay [6].
As to `NC(=O)/C(=C1\Nc2ccc(CN3CCOCC3)cc2S1)c1nccc(C(F)(F)F)n1` [Compound 91A], the concentration for half-maximal inhibition (IC50) in assay [1] amounted to 2 nM; in assay [2], 20 nM; in assay [3] it was 10 nM; in assay [4] it was 100 nM; in assay [5], 300 nM; in assay [6], 40 nM.
`COc1ccnc(/C(C(N)=O)=C2/Nc3ccc(CN4CCOCC4)cc3S2)n1` [Compound 92A]: the IC50 is 70 nM in assay [1]; 30 nM in assay [2]; 400 nM in assay [3]; 500 nM in assay [4]; 5000 nM in assay [5]; 60 nM in assay [6].
For the molecule `CN1CCN(Cc2ccc3c(c2)S/C(=C(/C(N)=O)c2nccc(C(F)(F)F)n2)N3)CC1` [Compound 93A], the IC50 came to 20 nM in assay [1]; 20 nM in assay [2]; 10 nM in assay [3]; 100 nM in assay [4]; 300 nM in assay [5]; 30 nM in assay [6].
Take `Cn1ccnc1-c1ccc2c(c1)S/C(=C(/C(N)=O)c1nccc(C(F)(F)F)n1)N2` [Compound 106A]: the IC50 is 3 nM in assay [1]; 20 nM in assay [2]; 30 nM in assay [3]; 900 nM in assay [4]; 2000 nM in assay [5]; 80 nM in assay [6].
As for `NC(=O)/C(=C1\Nc2ccc(OCCN3CCOCC3)cc2S1)c1nccc(C(F)(F)F)n1` [Compound 111A], the IC50 in assay [1] was 20 nM; in assay [2], 9 nM; in assay [3], 100 nM; in assay [4] it was 400 nM; in assay [5], 2000 nM; in assay [6], 300 nM.
In the case of `NC(=O)/C(=C1\Nc2cc(OCCN3CCOCC3)ccc2S1)c1nccc(C(F)(F)F)n1` [Compound 112A], the IC50 in assay [1] was 20 nM; in assay [2] it was 20 nM; in assay [3] it was 200 nM; in assay [4] it was 900 nM; in assay [5], 2000 nM; in assay [6], 200 nM.

Usually IC50 stands for the concentration that gives 50% inhibition.

The values above are taken from patent US8129396B2, “2-[1H-benzimidazol-2(3H)-ylidene]-2-(pyrimidin-2-yl)acetamides and 2-[benzothiazol-2(3H)-ylidene]-2-(pyrimidin-2-yl)acetamides as kinase inhibitors” (Telik, Inc., priority 2008, dated 2012).
